Measured values from EP3498273A1, “PHARMACEUTICAL COMPOSITION FOR MODULATING THE RESPONSE OF A GABA-A RECEPTOR” (Universität Wien, priority 2017, dated 2019).

How the values were obtained:
[1] = test system: native GABAA receptors, primary cultures of dissociated hippocampal neurons; experiment: Whole-cell patch clamp on cultured hippocampal neurons (miniature IPSCs and tonic currents); assay type: cell-based; details: 10 µM compound, holding potential -70 mV
male C57BL/6N mice = experiment: Seizure threshold upon pentylenetetrazole (PTZ) tail-vein infusion; assay type: in vivo; details: intraperitoneal, 30 min before the test, n = 4, control 39.5 ± 0.8
Procedure: Only male C57BL/6N mice (age 3-6 months) were used for determination of the seizure threshold. Intraperitoneal injection of control or compound-containing solutions was done 30 min before the test. Indicated doses in the results represent milligrams per kilogram body weight. Seizure threshold was determined by pentylenetetrazole (PTZ) tail-vein infusion on freely moving animals at a rate of 100 µl/min (10 mg/ml PTZ in saline, pH = 7.4). […] Animals were immediately killed by cervical displacement after onset of seizures. The seizure threshold dose was calculated from the infused dose in relation to body weight (mg/kg).

[2] = molecular target: GABAA receptors composed of α1β2γ2S subunits (Homo sapiens, UniProt P14867+P47870); experiment: Two-microelectrode voltage clamp: IGABA enhancement in Xenopus laevis oocytes
[3] = molecular target: GABAA receptors composed of α1β1γ2S subunits (Homo sapiens, UniProt P14867+P18505); experiment: as above; details: replacing β2/3 by β1; Emax and EC50 not determined
Chain of GABAA receptors composed of α1β1γ2S subunits (P14867 28-456): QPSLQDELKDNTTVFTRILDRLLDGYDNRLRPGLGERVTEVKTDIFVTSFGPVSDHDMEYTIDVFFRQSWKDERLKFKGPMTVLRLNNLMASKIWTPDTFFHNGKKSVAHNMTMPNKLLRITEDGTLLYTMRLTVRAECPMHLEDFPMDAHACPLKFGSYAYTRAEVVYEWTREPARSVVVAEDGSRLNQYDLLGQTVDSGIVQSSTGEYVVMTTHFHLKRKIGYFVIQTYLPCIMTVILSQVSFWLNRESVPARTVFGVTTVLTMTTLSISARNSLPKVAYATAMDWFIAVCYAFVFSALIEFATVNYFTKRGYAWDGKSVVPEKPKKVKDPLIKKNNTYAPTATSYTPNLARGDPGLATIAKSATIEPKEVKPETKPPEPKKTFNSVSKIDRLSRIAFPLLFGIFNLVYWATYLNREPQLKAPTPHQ
Chain of GABAA receptors composed of α1β1γ2S subunits (P18505 26-474): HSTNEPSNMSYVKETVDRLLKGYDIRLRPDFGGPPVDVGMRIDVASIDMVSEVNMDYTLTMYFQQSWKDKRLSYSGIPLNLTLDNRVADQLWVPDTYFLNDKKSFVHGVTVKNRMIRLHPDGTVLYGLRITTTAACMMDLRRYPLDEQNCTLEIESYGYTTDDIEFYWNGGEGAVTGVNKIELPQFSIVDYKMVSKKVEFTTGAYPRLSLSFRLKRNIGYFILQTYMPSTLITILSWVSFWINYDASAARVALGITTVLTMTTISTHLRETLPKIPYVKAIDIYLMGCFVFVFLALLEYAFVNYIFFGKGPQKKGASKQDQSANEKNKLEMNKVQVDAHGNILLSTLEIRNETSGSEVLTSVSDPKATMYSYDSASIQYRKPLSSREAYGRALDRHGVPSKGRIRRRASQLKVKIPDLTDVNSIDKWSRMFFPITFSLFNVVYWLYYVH
Chain of GABAA receptors composed of α1β1γ2S subunits (P18507 40-467 isoform P18507-1 partner limits assumed): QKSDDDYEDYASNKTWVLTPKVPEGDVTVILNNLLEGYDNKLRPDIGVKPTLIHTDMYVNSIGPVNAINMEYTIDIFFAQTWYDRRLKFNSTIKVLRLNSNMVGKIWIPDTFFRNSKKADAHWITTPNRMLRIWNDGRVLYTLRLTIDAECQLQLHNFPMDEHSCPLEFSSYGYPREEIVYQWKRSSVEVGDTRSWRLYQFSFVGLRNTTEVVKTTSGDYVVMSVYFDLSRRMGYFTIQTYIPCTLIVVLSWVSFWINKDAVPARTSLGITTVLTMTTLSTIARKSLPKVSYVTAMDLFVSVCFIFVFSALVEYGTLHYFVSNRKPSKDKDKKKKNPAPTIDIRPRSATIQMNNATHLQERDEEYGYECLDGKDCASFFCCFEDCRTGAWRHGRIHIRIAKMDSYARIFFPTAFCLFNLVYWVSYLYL

Chain of GABAA receptors composed of α1β2γ2S subunits (P14867 28-456): as the sequence (P14867 28-456) above
Chain of GABAA receptors composed of α1β2γ2S subunits (P47870 26-474 isoform P47870-1 limits assumed): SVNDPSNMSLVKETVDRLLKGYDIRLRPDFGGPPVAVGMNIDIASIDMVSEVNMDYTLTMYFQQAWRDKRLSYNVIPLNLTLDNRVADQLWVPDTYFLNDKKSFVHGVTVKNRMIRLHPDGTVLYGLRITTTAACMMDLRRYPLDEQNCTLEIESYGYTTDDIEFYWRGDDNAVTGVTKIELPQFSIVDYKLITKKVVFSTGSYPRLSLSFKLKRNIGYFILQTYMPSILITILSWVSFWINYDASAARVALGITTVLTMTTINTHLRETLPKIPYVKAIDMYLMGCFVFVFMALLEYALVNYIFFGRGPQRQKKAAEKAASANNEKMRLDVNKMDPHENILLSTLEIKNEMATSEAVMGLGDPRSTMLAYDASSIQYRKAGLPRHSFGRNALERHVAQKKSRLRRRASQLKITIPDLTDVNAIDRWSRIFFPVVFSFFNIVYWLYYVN
Chain of GABAA receptors composed of α1β2γ2S subunits (P18507 40-467 isoform P18507-1 partner limits assumed): as the sequence (P18507 40-467 isoform P18507-1 partner limits assumed) above

- EC50 [2]: 9.9 ± 2.5 µM
- Emax ([2]; second β2/3 channel of Fig. 1B, printed as α1β3γ2S, n = 3, no unit at this value): 1804.9 ± 153.0%
- sensitivity of the resulting GABAA channels [3]: drastically reduced the sensitivity
SMILES: C/C(=C/C#N)c1ccc(Cl)cc1Cl [Compound Z-2, (2Z)-3-(2,4-dichlorophenyl)but-2-enenitrile]
- amplitude of mIPSCs [1]: no effect
- frequency of mIPSCs [1]: no effect
- holding currents [1]: shifted towards more negative values
- decay of mIPSCS (normalized) ([1]; compared to control, n=5): 213.8 ± 41.0%
- seizure threshold (male C57BL/6N mice; 0.1 mg/kg body weight): 48.5 ± 2.3 mg/kg PTZ
- seizure threshold (male C57BL/6N mice; 0.3 mg/kg body weight): 52.3±1.6 mg/kg PTZ
